Here are results for 15 molecules from US20090062258A1, “FUSED PYRIMIDINE DERIVATIVE AND USE THEREOF” (Takeda Pharmaceutical Company Limited, priority 2005, published 2009).

The assay has as its target T1, human GnRH receptor (Homo sapiens, UniProt P30968).
T1 construct: expressed in transfected cells; host or cells: CHO (Chinese Hamster Ovary) cells; membrane fraction
T1 sequence (P30968 1-328): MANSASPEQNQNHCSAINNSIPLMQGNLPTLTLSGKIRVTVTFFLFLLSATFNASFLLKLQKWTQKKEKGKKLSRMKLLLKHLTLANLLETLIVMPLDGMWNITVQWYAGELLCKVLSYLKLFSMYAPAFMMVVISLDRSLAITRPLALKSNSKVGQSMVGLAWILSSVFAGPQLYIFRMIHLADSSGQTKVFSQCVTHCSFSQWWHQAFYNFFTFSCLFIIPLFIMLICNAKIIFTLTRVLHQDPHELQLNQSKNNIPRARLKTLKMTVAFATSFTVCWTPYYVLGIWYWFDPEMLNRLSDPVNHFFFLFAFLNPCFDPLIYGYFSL
Briefly: 125I-leuprorelin binding assay (binding inhibitory rate). The settings on record: 10 nM of the testing compound; 800 pM 125I-leuprorelin; 10 μg human GnRH receptor membrane fraction (CHO cells); room temperature 1 hour; read-out: Binding inhibitory ratio (%). As for the experimental part: 10 μL of a 3×10^−4 M aqueous solution of leuprorelin and 10 μL of 0.01 mg/mL lactoperoxidase were placed in a tube, and 10 μL (37 MBq) of a Na^125I solution was added thereto. After stirring, 10 μL of 0.001% H2O2 was added to allow the mixture to undergo a reaction at room temperature for 20 minutes. 700 μL of a 0.05% TFA solution was added to stop the reaction, and purification by reversed phase HPLC was carried out. The conditions for HPLC are described below. ^125I-leuprorelin was eluted at a retention time of 26 to 27 minutes.
Human GnRH receptor-expressing CHO cells were cultured until the cells were reached a 90% confluent state in a T-150 flask. The cells were separated using 0.02% EDTA-PBS and were centrifuged at 500×g for 5 minutes. A homogenate buffer for cells (10 mM NaHCO3, 1 mM EDTA, 1 mM PMSF, 0.5 μg/mL Pepstatin, 2 μg/mL Leupeptin, pH 7.4) was added to the cell pellet, and the mixture was homogenized with a Polytron homogenizer. After centrifugation of the homogenate at 4° C. and at 1000×g for 10 minutes, the supernatant was placed in an ultracentrifuge tube and was centrifuged at 4° C. and at 49,300×g for 1 hour to obtain a precipitate of a membrane fraction. This precipitate was suspended in an assay buffer (50 mM Tris-HCl, 150 mM NaCl, 5 mM EDTA, pH 7.4) and then dispensed and stored at −80° C., so that the suspension can be thawed every time it is taken for use.
A ^125I-leuprorelin binding assay was carried out using 200 μL of an assay buffer containing 10 μg of human GnRH receptor membrane fraction, 800 pM of ^125I-leuprorelin and 10 nM of the testing compound.
The non-specific binding radioactivity was measured in the presence of 1 μM of non-labeled leuprorelin. After leaving the mixture to stand at room temperature for 1 hour, ^125I-leuprorelin was captured on a GF/C filter (PerkinElmer, Inc.), and the filter was washed with ice-cold 50 mM Tris-HCl (pH 7.4) using a cell harvester. After drying the filter, a liquid scintillation cocktail for microplate was added, and the membrane-bound radioactivity was measured using a TopCount.
The value of (TB-SB)/(TB-NSB)×100 (SB: radioactivity upon addition of the compound, TB: maximum binding radioactivity, NSB: non-specific binding radioactivity) was calculated to determine the binding inhibitory rate in the presence of 10 nM of each testing material.

Regarding `COC(=O)c1scc2[nH]c(=O)n(-c3cc(C(=O)N(c4cccc(Br)c4Cl)C4CC4)sc3Cl)c(=O)c12` [Example 37, Methyl 3-(5-{[(3-bromo-2-chlorophenyl)(cyclopropyl)amino]carbonyl}-2-chloro-3-thienyl)-2,4-dioxo-1,2,3,4-tetrahydrothieno[3,4-d]pyrimidine-5-carboxylate], the inhibition at 0.01 µM was found to be 100%. In the case of `O=C(O)c1csc2[nH]c(=O)n(-c3cccc(S(=O)(=O)N4CCCc5ccccc54)c3)c(=O)c12` [Example 34 (3), 3-[3-(3,4-Dihydroquinolin-1(2H)-ylsulfonyl)phenyl]-2,4-dioxo-1,2,3,4-tetrahydrothieno[2,3-d]pyrimidine-5-carboxylic acid], the inhibition at 0.01 µM worked out at 100%.

In the case of `CCN(C(=O)c1csc(-n2c(=O)[nH]c3csc(C(=O)O)c3c2=O)c1)c1ccccc1` [Example 33-2, 3-(4-{[Ethyl(phenyl)amino]carbonyl}-2-thienyl)-2,4-dioxo-1,2,3,4-tetrahydrothieno[3,4-d]pyrimidine-5-carboxylic acid], the inhibition at 0.01 µM amounted to 85%.

For `CC(O)c1scc2[nH]c(=O)n(-c3cccc(S(=O)(=O)N4CCCc5ccccc54)c3)c(=O)c12` (stereo not drawn) [Example 24, 3-[3-(3,4-Dihydroquinolin-1(2H)-ylsulfonyl)phenyl]-5-(1-hydroxyethyl)thieno[3,4-d]pyrimidin-2,4(1H,3H)-dione], the inhibition at 0.01 µM worked out at 95%.

Consider `Cc1nnc(-c2scc3[nH]c(=O)n(-c4cccc(S(=O)(=O)N5CCCc6ccccc65)c4)c(=O)c23)o1` [Example 12, 3-[3-(3,4-dihydroquinolin-1(2H)-ylsulfonyl)phenyl]-5-(5-methyl-1,3,4-oxadiazol-2-yl)thieno[3,4-d]pyrimidin-2,4(1H,3H)-dione], for which the inhibition at 0.01 µM worked out at 72%. On to `N#Cc1cccc(N(C(=O)c2cc(-n3c(=O)[nH]c4csc(CO)c4c3=O)c(Cl)s2)C2CC2)c1Cl` [Example 39, 5-Chloro-N-(2-chloro-3-cyanophenyl)-N-cyclopropyl-4-[5-(hydroxymethyl)-2,4-dioxo-1,2-dihydrothieno[3,4-d]pyrimidine-3(4H)-yl]thiophene-2-carboxamide], for which the inhibition at 0.01 µM amounted to 101%.

For the molecule `O=C(O)c1scc2[nH]c(=O)n(-c3cc(S(=O)(=O)N4CCCCc5sccc54)sc3Cl)c(=O)c12` [Example 6, 3-[2-Chloro-5-(5,6,7,8-tetrahydro-4H-thieno[3,2-b]azepin-4-ylsulfonyl)-3-thienyl]-2,4-dioxo-1,2,3,4-tetrahydrothieno[3,4-d]pyrimidine-5-carboxylic acid], the inhibition at 0.01 µM was found to be 97%. As to `COC(=O)c1scc2[nH]c(=O)n(-c3cc(S(=O)(=O)N4CCCc5ccccc54)cs3)c(=O)c12` [Example 30, Methyl 3-[4-(3,4-dihydroquinolin-1(2H)-ylsulfonyl)-2-thienyl]-2,4-dioxo-1,2,3,4-tetrahydrothieno[3,4-d]pyrimidine-5-carboxylate], the inhibition at 0.01 µM stood at 110%. In the case of `O=c1[nH]c2csc(CO)c2c(=O)n1-c1cc(S(=O)(=O)N2CCCc3ccccc32)cs1` [Example 31, 3-[4-(3,4-Dihydroquinolin-1(2H)-ylsulfonyl)-2-thienyl]-5-(hydroxymethyl)thieno[3,4-d]pyrimidin-2,4(1H,3H)-dione], the inhibition at 0.01 µM worked out at 100%. With `N#Cc1cccc(N(C(=O)c2cc(-n3c(=O)[nH]c4csc(C(=O)O)c4c3=O)c(Cl)s2)C2CC2)c1Cl` [Example 40, 3-(2-Chloro-5-{[(2-chloro-3-cyanophenyl)(cyclopropyl)amino]carbonyl}-3-thienyl)-2,4-dioxo-1,2,3,4-tetrahydrothieno[3,4-d]pyrimidine-5-carboxylic acid], the inhibition at 0.01 µM was determined as 101%. As for `COC(=O)c1scc2[nH]c(=O)n(-c3cc(C(=O)N(c4cccc(C#N)c4Cl)C4CC4)sc3Cl)c(=O)c12` [Example 38, Methyl 3-(2-chloro-5-{[(2-chloro-3-cyanophenyl)(cyclopropyl)amino]carbonyl}-3-thienyl)-2,4-dioxo-1,2,3,4-tetrahydrothieno[3,4-d]pyrimidine-5-carboxylate], the inhibition at 0.01 µM is 95%.

As for `O=c1[nH]c2ccsc2c(=O)n1-c1cccc(S(=O)(=O)N2CCCc3ccccc32)c1` [Example 1, 3-[3-(3,4-Dihydroquinolin-1(2H)-ylsulfonyl)phenyl]thieno[3,2-d]pyrimidin-2,4(1H,3H)-dione], the inhibition at 0.01 µM is 86%. On to `CNC(=O)c1scc2[nH]c(=O)n(-c3cc(S(=O)(=O)N4CCCc5ccccc54)ccc3Cl)c(=O)c12` [Example 16, 3-[2-Chloro-5-(3,4-dihydroquinolin-1(2H)-ylsulfonyl)phenyl]-N-methyl-2,4-dioxo-1,2,3,4-tetrahydrothieno[3,4-d]pyrimidine-5-carboxamide], for which the inhibition at 0.01 µM turned out to be 96%.

As for `N#Cc1cccc(N(C(=O)c2cc(-n3c(=O)[nH]c4csc(C(N)=O)c4c3=O)c(Cl)s2)C2CC2)c1Cl` [Example 41, 3-(2-Chloro-5-{[(2-chloro-3-cyanophenyl)(cyclopropyl)amino]carbonyl}-3-thienyl)-2,4-dioxo-1,2,3,4-tetrahydrothieno[3,4-d]pyrimidine-5-carboxamide], the inhibition at 0.01 µM worked out at 100%.

`CC(C)(C)OC(=O)CNC(=O)c1scc2[nH]c(=O)n(-c3cccc(S(=O)(=O)N4CCCc5ccccc54)c3)c(=O)c12` [Example 7 (1), N-({3-[3-(3,4-Dihydroquinolin-1(2H)-ylsulfonyl)phenyl]-2,4-dioxo-1,2,3,4-tetrahydrothieno[3,4-d]pyrimidin-5-yl}carbonyl) glycine tert-butyl ester]: the inhibition at 0.01 µM turned out to be 92%.
